Measurements: ChEMBL document CHEMBL5104153, “De novo design of type II topoisomerase inhibitors as potential antimicrobial agents targeting a novel binding region” (RSC Med Chem, 2022)

Tests used:
[1] = test system: Escherichia coli; test: Antibacterial activity against Escherichia coli measured by broth microdilution assay
[2] = target: DNA gyrase (Escherichia coli, UniProt P0AES4+P0AES6); test: Inhibition of Escherichia coli DNA gyrase supercoiling activity using pBR322 as substrate incubated for 30 mins measured by gel-based assay; format: protein-complex assay
[3] = test system: Staphylococcus aureus; test: Antibacterial activity against Staphylococcus aureus measured by broth microdilution assay
[4] = Inhibition of Escherichia coli topoisomerase 4 assessed as relaxation of supercoiled plasmid pBR322 DNA and measured after 30 mins

Structure (SMILES): Cl.NCC(NC(=O)c1cccc(-c2cccs2)c1)c1ccc(O)cc1 (configuration not stated)
- MIC [1]: 8 µg/mL
- IC50 [2]: 0.3 µM
- MIC [3]: 8 µg/mL
- IC50 [4]: > 540 µM

Structure (SMILES): CCOc1cccc(-c2cccc(C(=O)N[C@@H](CN)c3ccccc3)c2)c1F
- IC50 [4]: > 100 µM

Structure (SMILES): COc1ccccc1-c1cccc(C(=O)NC(CN)c2cccc(O)c2)c1 (configuration not stated)
- IC50 [4]: > 100 µM

Structure (SMILES): NC[C@H](NC(=O)c1cccc(-c2ccccc2C(F)(F)F)c1)c1ccccc1
- IC50 [4]: > 100 µM
